What was measured:
rats = experiment: Sperm characteristics and fertility in rats; assay type: in vivo, rat
healthy adult men = experiment: Sperm parameters in healthy adult men; assay type: in vivo, human; settings: 100 mg orally twice daily for 6 weeks
ATB200 = ATB200 (Homo sapiens, UniProt P10253); experiment: Thermostability assay using SYPRO Orange; settings: pH 7.4
[1] = Miglustat plasma pharmacokinetics in patients, incl. renal impairment; assay type: in vivo, human
Protocol: At the recommended 260 mg dose, the mean Cmax was approximately 3 mcg/mL and the mean AUC was approximately 25 mcg*hr/mL. The mean time to reach the maximum concentration ranged from 2 hours to 3 hours.
Plasma concentrations of miglustat increased in patients with renal impairment. Accordingly, the apparent clearance of miglustat decreased with decreasing renal function. […] In some embodiments, the dosage of miglustat in patients with moderate or severe renal impairment is reduced as compared to patients with normal renal function.

Gaa KO mice = experiment: Single fiber analysis (LAMP1/LC3 co-immunofluorescence, white gastrocnemius); assay type: in vivo, mouse; settings: mouse, in vivo
Excerpt: FIG. 17 depicts co-immunofluorescent staining of LAMP1 (green) (see for example, “B”) and LC3 (red) (see, for example, “A”) in single fibers isolated from the white gastrocnemius of Gaa KO mice treated with a vehicle, alglucosidase alfa, or ATB200. “C” depicts clearance of autophagic debris and absence of enlarged lysosome. A minimum of 30 fibers were examined from each animal.
As a result, a significant portion of muscle fibers analyzed (36-60%) from ATB200-treated mice appeared normal or near-normal.

CIMPR = CIMPR (Homo sapiens, UniProt P11717); experiment: CIMPR affinity chromatography of rhGAA (bound vs flow-through by GAA activity); assay type: binding; settings: CIMPR affinity column
Excerpt: Multiple batches of the rhGAA according to the disclosure were produced in shake flasks and in perfusion bioreactors using CHO cell line GA-ATB200, the product of which is referred to as “ATB200.” Weak anion exchange (“WAX”) liquid chromatography was used to fractionate ATB200 rhGAA according to terminal phosphate and sialic acid. Elution profiles were generated by eluting the ERT with increasing amount of salt. The profiles were monitored by UV (A280 nm).
To evaluate the ability of the conventional rhGAAs in MYOZYME® and LUMIZYME® to interact with the CIMPR, the two conventional rhGAA preparations were injected onto a CIMPR affinity column (which binds rhGAA having M6P groups) and the flow through collected. The bound material was eluted with a free M6 gradient. Fractions were collected in 96-well plate and GAA activity assayed by 4MU-α-glucosidase substrate. The relative amounts of unbound (flow through) and bound (M6P eluted) rhGAA were determined based on GAA activity and reported as the fraction of total enzyme. […] Indeed, only 27% of the rhGAA in MYOZYME® and 22% of the rhGAA in LUMIZYME® contained M6P that can be productive to target it to the CIMPR on muscle cells.

[2] = system: LOPD population (PROPEL target population); experiment: Multi-level network meta-regression (ML-NMR) indirect treatment comparison, 6MWD and FVC change from baseline at week 52; parameters: species or system human; settings: base-case scenario
Protocol: Using patient-level data from the PROPEL randomized clinical trial (RCT) plus aggregate published data from other RCTs, Phase I/II and open label extension trials, a multi-level network meta-regression was conducted, adjusting for various baseline covariates including previous ERT duration. The base case scenario had covariates resembling the PROPEL population (naïve and ERT-experienced) and analyzed 6MWD and FVC change from baseline at 52 weeks.
An ITC providing relative effect estimates in the target population of interest (ie an LOPD population including a mix of ERT-naïve and ERT-experienced subjects as in the pivotal Phase III trial comparing Cipa+mig with Alglu [PROPEL]) was performed.
A systematic literature review (SLR) was conducted to identify relevant published clinical studies of ERTs in LOPD. Outcomes assessed were change from baseline in 6-minute walking distance (6MWD) (m) and in forced vital capacity (FVC; % predicted) at week 52, acknowledged by clinicians, HTA agencies and payers as key LOPD trial endpoints. Aggregate results on 6MWD and FVC change from baseline over time and baseline characteristics (age, gender, ethnicity, previous ERT duration, baseline 6MWD and baseline FVC) were extracted from included studies.
A multi-level network meta regression (ML-NMR) was performed, which is an extension of standard network meta-analyses (NMAs) that take into account the effect of study-level covariates, and that can be applied to any connected network with any mixture of individual patient-level data (IPD) and aggregate data. ML-NMR is an accepted method by the National Institute for Health and Care Excellence (NICE) in support of cost effectiveness analysis. Single-arm study results were matched to appropriate comparator arms of the comparative studies to allow for inclusion into the network. Mean treatment differences with associated 95% credible intervals (CrIs) were calculated for 6MWD and FVC change from baseline at week 52.
A base-case scenario was evaluated in which all covariates were set to the target population of the PROPEL trial. To study the impact of previous ERT duration on relative effects, ERT duration value was varied, keeping remaining covariate values as in the base-case scenario. A sensitivity analysis was performed by excluding all matched single-arm evidence from the network to assess its impact on the results.
Both fixed effects (FE) and random effects (RE) ML-NMR models were applied and the deviance information criteria (DIC) was used to assess goodness-of-fit of the models and to identify the appropriate model (FE or RE model) for the data. Models were implemented in a Bayesian framework using Stan with help of the R package multinma.
In the base-case scenario, the covariates were set to the baseline characteristics of the target population (ie the PROPEL trial; see Table 20), and time was set to 52 weeks.

Pompe disease patients = settings: ERT-experienced patients; cited from earlier work
adult subjects with LOPD [3] = experiment: Study ATB200-07 (OLE): Hex4
Protocol: (§3) The Phase III double-blind PROPEL study (NCT03729362; ATB200-03) described in Examples 9 and 10 above compared the investigational two-component therapy cipaglucosidase alfa/miglustat (cipa/mig) with alglucosidase alfa/placebo (alglu) in adults with late-onset Pompe disease (LOPD) over 52 weeks. The ongoing open-label extension (OLE) of PROPEL (NCT04138277; ATB200-07) evaluates long-term safety and efficacy of cipa/mig. Outcomes include 6 minute walk distance (6MWD), forced vital capacity (FVC), creatine kinase (CK) and hexose tetrasaccharide (Hex4) levels and safety. Data are reported as change from the PROPEL baseline to OLE week 52 (104 weeks after the PROPEL baseline).

adult subjects with LOPD [4] = experiment: Study ATB200-07 (OLE of PROPEL): 6MWD and % predicted 6MWD; assay type: in vivo, human
Excerpt: (§1) The study doses and schedule are maintained from Study ATB200-03.
(§2) Efficacy data are presented in this summary as change from the baseline of Study ATB200-03 (OLE-ES Population).

adult subjects with LOPD [5] = experiment: Study ATB200-07 (OLE): sitting % predicted FVC; assay type: in vivo, human
Excerpt: as §1, §2

adult subjects with LOPD [6] = experiment: Study ATB200-07 (OLE): CK
Protocol: as §3

[7] = in vivo
Protocol: The ongoing open-label extension (OLE) of PROPEL (NCT04138277; ATB200-07) evaluates long-term safety and efficacy of cipa/mig. Outcomes include 6 minute walk distance (6MWD), forced vital capacity (FVC), creatine kinase (CK) and hexose tetrasaccharide (Hex4) levels and safety. Data are reported as change from the PROPEL baseline to OLE week 52 (104 weeks after the PROPEL baseline).

[8] = human, plasma, oral, 260 mg dose

CIMPR, sequence (P11717 41-2491, species assumed): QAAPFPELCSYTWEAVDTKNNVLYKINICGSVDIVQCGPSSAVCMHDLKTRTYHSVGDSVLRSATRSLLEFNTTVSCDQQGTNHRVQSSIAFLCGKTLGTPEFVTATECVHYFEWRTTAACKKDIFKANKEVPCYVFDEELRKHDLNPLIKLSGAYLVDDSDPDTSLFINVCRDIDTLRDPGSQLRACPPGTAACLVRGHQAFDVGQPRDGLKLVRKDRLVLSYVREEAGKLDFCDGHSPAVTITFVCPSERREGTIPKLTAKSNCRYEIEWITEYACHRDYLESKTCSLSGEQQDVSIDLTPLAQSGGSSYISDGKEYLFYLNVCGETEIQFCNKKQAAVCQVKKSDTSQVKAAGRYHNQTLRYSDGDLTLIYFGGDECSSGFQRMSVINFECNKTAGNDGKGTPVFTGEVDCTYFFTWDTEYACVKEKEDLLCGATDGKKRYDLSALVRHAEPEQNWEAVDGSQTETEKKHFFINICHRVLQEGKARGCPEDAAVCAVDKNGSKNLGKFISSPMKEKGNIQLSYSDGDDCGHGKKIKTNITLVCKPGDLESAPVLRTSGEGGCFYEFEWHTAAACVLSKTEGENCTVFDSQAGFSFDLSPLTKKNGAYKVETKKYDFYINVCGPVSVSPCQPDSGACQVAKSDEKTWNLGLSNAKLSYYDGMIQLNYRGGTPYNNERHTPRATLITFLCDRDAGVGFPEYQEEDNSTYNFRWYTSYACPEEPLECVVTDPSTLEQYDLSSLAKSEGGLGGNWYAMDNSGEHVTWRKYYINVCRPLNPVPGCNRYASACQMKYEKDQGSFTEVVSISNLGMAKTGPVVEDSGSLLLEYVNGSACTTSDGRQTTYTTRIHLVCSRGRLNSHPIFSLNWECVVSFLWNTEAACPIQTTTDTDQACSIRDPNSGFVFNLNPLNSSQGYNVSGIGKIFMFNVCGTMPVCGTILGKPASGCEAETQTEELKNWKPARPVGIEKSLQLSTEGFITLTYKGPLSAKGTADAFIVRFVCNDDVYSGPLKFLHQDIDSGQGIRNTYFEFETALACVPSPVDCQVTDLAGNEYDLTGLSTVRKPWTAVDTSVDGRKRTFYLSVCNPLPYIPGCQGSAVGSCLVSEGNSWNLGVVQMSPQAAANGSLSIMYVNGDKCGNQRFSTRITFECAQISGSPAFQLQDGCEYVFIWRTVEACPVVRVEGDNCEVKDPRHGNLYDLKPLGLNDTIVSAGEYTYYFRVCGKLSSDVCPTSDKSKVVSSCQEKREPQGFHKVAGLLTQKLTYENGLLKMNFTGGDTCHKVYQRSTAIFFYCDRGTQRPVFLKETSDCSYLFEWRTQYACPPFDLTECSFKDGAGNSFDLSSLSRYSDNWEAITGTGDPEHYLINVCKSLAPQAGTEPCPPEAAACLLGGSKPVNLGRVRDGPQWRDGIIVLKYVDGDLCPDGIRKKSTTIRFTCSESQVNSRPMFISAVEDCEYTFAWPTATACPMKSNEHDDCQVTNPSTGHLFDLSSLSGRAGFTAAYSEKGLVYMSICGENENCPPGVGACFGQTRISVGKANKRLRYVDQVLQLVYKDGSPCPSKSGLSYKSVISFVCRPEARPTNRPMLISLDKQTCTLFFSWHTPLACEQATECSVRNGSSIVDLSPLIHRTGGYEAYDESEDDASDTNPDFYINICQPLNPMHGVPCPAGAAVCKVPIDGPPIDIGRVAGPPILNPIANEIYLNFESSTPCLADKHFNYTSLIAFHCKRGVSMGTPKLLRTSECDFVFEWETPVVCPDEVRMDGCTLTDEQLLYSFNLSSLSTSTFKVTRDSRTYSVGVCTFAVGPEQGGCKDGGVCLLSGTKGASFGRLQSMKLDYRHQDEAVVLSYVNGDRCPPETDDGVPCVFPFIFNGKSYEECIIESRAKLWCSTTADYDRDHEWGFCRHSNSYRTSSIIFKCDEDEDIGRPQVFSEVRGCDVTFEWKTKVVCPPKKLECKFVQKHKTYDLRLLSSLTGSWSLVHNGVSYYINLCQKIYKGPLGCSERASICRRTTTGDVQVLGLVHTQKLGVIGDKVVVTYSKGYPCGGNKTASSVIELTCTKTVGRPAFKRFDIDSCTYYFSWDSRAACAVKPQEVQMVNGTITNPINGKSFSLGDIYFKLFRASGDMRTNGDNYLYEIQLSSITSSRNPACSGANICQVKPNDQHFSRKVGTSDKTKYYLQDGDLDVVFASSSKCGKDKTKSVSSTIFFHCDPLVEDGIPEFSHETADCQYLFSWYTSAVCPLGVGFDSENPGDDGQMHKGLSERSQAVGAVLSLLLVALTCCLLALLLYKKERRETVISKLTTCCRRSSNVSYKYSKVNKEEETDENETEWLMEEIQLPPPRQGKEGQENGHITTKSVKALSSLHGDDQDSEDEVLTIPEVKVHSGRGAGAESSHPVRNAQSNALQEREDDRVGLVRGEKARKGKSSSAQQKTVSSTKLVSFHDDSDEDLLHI

CCCCN1C[C@H](O)[C@@H](O)[C@H](O)[C@H]1CO [miglustat, (2R,3R,4R,5S)-1-butyl-2-(hydroxymethyl)piperidine-3,4,5-triol]
effect on sperm characteristics and fertility (rats): negatively affects sperm characteristics (motility and morphology), thereby reducing fertility | effect on sperm concentration, motility, morphology (healthy adult men): No effect on sperm concentration, motility, or morphology | increase of melting temperature (Tm) of ATB200 by addition of miglustat (ATB200): ~10 °C | stabilization of ATB200 (ATB200): stabilized ATB200 at pH 7.4 in a concentration-dependent manner | dose proportionality ([1]; 130 mg to 260 mg): linear pharmacokinetics | AUC [1, 8]: ~25000 ng·h/mL | Cmax [1, 8]: ~3000 ng/mL | increase of AUC0-24 hr vs normal renal function ([1]; mild renal impairment (CLcr 60-89 mL/minute)): 21% | increase of AUC0-24 hr vs normal renal function ([1]; moderate renal impairment (CLcr 30-59 mL/minute)): 26% | increase of AUC0-24 hr vs normal renal function ([1]; severe renal impairment (CLcr 15-29 mL/minute)): 31%

MYOZYME®: alglucosidase alfa product marketed by Sanofi Genzyme; conventional rhGAA product
single fiber appearance vs vehicle-treated mice (Gaa KO mice): did not show any significant difference as compared to vehicle-treated mice | rhGAA bound to the CIMPR (fraction of total enzyme) (CIMPR; M6P eluted): 27% | rhGAA that did not bind to the CIMPR (fraction of total enzyme) (CIMPR; flow through): 73%

avalglucosidase alfa: recombinant human acid α-glucosidase, avalglucosidase alfa-ngpt; CAS 1802558-87-7
relative effect, sensitivity analysis (RCT data only), 6MWT and FVC [2]: numerically favourable versus Alglu and placebo (6MWT and FVC) | long-term motor function by 6MWD after switching from alglucosidase alfa (Pompe disease patients): continue to experience progressive loss of motor function as assessed by 6MWD | long-term pulmonary function by FVC after switching from alglucosidase alfa (Pompe disease patients): progressive loss of pulmonary function as assessed by FVC

cipa/mig-cipa/mig: treatment sequence: cipa/mig in PROPEL, continued cipa/mig in the open-label extension
mean reduction in Hex4 from PROPEL baseline to week 104 (adult subjects with LOPD [3]; ERT-experienced patients): -1.9 (3.22) mmol/mol | mean reduction in Hex4 from PROPEL baseline to week 104 (adult subjects with LOPD [3]; ERT-naïve patients): −2.9 (2.45) mmol/mol | mean change in % predicted 6MWD from PROPEL baseline to week 104 (adult subjects with LOPD [4]; ERT-experienced patients): +3.1 | mean change in % predicted 6MWD from PROPEL baseline to week 104 (adult subjects with LOPD [4]; ERT-naïve patients): +8.6 (8.57) | mean change in % predicted FVC from PROPEL baseline to week 104 (adult subjects with LOPD [5]; ERT-experienced patients): −0.6 (7.50) | mean change in % predicted FVC from PROPEL baseline to week 104 (adult subjects with LOPD [5]; ERT-naïve patients): −4.8 (6.48) | mean reduction in CK from PROPEL baseline to week 104 (adult subjects with LOPD [6]; ERT-experienced patients): -132.1 (215.74) U/L | mean reduction in CK from PROPEL baseline to week 104 (adult subjects with LOPD [6]; ERT-naïve patients): −216.9 (243.66) U/L | patients with treatment-emergent adverse events [7]: 98.8%
